Measurements taken from patent publication US9108930B2, “N1- and N2-carbamoyl-1,2,3-triazole serine hydrolase inhibitors and methods” (The Scripps Research Institute, priority 2011, dated 2015).

Assays:
DAGLB [1] = target: T1, DAGLB (Mus musculus, UniProt Q91WC9); test: Gel-based ABPP assay against recombinant DAGLB (HEK293T-DAGLB lysates); format: biochemical; design: Full-length cDNAs encoding serine hydrolases were purchased from Open Biosystems; V5; host or cells: HEK293T; conditions: recombinant
T1 sequence (Q91WC9 1-669): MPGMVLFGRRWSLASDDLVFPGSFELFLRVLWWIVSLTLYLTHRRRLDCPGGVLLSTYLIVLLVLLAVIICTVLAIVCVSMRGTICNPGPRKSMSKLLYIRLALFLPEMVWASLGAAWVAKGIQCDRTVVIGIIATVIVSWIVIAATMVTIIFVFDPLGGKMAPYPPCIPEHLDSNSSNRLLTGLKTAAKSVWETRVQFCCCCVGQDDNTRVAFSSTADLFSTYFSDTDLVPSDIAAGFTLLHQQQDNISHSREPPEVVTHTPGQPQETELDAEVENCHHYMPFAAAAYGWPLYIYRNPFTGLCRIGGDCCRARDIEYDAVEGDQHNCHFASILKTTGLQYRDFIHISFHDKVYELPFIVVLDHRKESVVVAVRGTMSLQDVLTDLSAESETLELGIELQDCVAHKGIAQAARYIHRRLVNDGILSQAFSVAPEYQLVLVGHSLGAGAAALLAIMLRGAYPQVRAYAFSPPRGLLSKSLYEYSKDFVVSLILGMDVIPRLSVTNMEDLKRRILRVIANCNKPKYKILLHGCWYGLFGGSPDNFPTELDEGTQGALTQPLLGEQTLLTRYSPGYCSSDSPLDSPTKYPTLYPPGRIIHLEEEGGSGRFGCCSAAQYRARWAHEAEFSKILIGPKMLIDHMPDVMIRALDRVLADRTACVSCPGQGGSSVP

[2] = system: serine hydrolases in mouse brain proteome; test: Selectivity profile by competitive ABPP (mouse brain proteome), DAGL series; format: biochemical
DAGLB [3] = target: T1, DAGLB; test: In vivo DAGLB inactivation in peritoneal macrophages, gel-based competitive ABPP using HT01; design: from tissue; host or cells: thioglycolate-elicited peritoneal macrophages of treated mice; conditions: for dose (as low as) giving complete inactivation of DAGLB in peritoneal macrophages: about 4 hours, doses about 10 to about 0.1 mg/kg
[4] = system: peritoneal macrophages of Pla2g4a-/- mice; test: LPS-stimulated TNF-alpha release, macrophages from treated Pla2g4a-/- mice; format: in vivo, mouse; conditions: 5 mg/kg, 4 hours, i.p.
Experimental: Next, the cytokine profiles from a Pla2g4a^+/+ background were compared with the profiles from Pla2g4a^−/− mice treated with KT109 or KT195 (5 mg/kg, 4 hours, i.p.). […] However, no significant differences in LPS-stimulated TNF-alpha levels were observed from Pla2g4a^+/+ versus […].

[5] = system: peritoneal macrophages of Pla2g4a-/- mice; test: Metabolomics of macrophages from treated Pla2g4a-/- mice; format: in vivo, mouse; conditions: 5 mg/kg, 4 hours, i.p.
Experimental: Pla2g4a^−/− mice were treated with KT109 or KT195 (5 mg/kg, 4 hours, i.p.), thioglycolate-elicited macrophages were harvested, and then the macrophages were subjected to metabolomics analysis. The cellular levels of PGE2 and PGD2 were measured.
Metabolites were quantified by either selected reaction monitoring (SRM) of each metabolite using an Agilent G6410B Triple-Quad instrument or untargeted metabolomic analysis (substrate assays) using an Agilent 1100 series LC-MSD SL instrument. […] For analysis of diacylglycerols (DAGs) a Luna C5 column (50 mm×4.60 mm with 5 μm diameter particles) from Phenomenex was used. Mobile phase A was made of 95:5 v/v H2O:MeOH, and mobile phase B was composed of 60:35:5 v/v/v i-PrOH:MeOH:H2O. Ammonium hydroxide (0.1%) and formic acid (0.1%) was included to assist in ion formation in negative and positive ionization modes, respectively. For analysis of DAGs, 5 mM ammonium formate was also used in addition to 0.1% formic acid to assist in positive ionization and NH4+ adduct formation. For metabolite measurements, cells were resuspended in 1 mL of a 1% NaCl solution and added to 3 mL of a 2:1 v/v CHCl3:MeOH doped with 1 nmol of the following internal standards: d5-2-arachidonoylglycerol (2-AG), d8-arachidonic acid (AA), and d8-1-stearoyl-2-arachidonoylglycerol (SAG). The mixture was vortexed and then centrifuged (1,400×g, 3 min). The organic layer was removed, CHCl3 was added until the final volume was again 4 ml, and the extraction was repeated. The combined organic extracts were dried under a stream of N2 and resolubilized in 2:1 v/v CHCl3:MeOH (120 μl). 30 μL of resolubilized lipids were injected for positive mode (MAGs and DAGs) and negative mode (free fatty acids and eicosanoids) measurements.
The following parameters (MS) were used to measure the indicated metabolites by SRM (precursor ion, product ion, collision energy in V, polarity): C20:4 MAG or 2-AG (379, 287, 8, positive), d5-2-AG (384, 287, 5, positive), C18:0/C20:4 DAG or SAG (662, 341, 15, positive), d8-SAG (671, 671, 0, positive), C18:1/C20:4 DAG (660, 341, 15, positive), C16:0/C20:4 DAG (634, 341, 15, positive), C14:0/C20:4 DAG (606, 341, 15, positive), arachidonic acid or AA (303, 303, 0, negative), d8-AA (311, 267, 5, negative), PGE2 (351, 271, 10, negative), and PGD2 (351, 271, 10, negative). MS analysis was performed with an electrospray ionization source with the following parameters: drying gas temperature=350° C., drying gas flow rate=11 L/min, and the nebulizer pressure=35 psi. Prostaglandin SRM parameters were based on previously reported methods and transitions. Metabolites targeted by SRM were quantified by measuring the area under the peak in comparison with the internal standards. […]

DAGLB [6] = target: T1, DAGLB; test: ABPP-MudPIT of peritoneal macrophages from treated mice; conditions: in vivo
[7] = system: serine hydrolases in the peritoneal macrophage proteome; test: ABPP-MudPIT of peritoneal macrophages from treated mice, off-targets; conditions: mouse, in vivo

| SMILES | activity against DAGLB (DAGLB [1]) | off-target activity / selectivity against other serine hydrolases [2] | time to complete inhibition of DAGLB (DAGLB [3]; 5 mg/kg, i.p.) | dose (as low as) giving complete inactivation of DAGLB in peritoneal macrophages (DAGLB [3]; i.p.) [mg/kg] | inhibition at 5 mg/kg (DAGLB [3]; mouse, ip, read-out: persistent inhibition of DAGLB after 16 hours) [%] | increase of TNF-alpha levels upon LPS stimulation [4] [fold] | PGD2 level [5] | change in PGE2 [5] | DAGLB inhibition by spectral counting (DAGLB [6]) | off-target activities [7] | duration / time-course of DAGLB inhibition (DAGLB [3]; 5 mg/kg, i.p., about 1 to 16 hours) | effect on TNF-alpha levels upon LPS stimulation [4] |
| --- | --- | --- | --- | --- | --- | --- | --- | --- | --- | --- | --- | --- |
| O=C(N1CCCCC1Cc1ccccc1)n1cc(-c2ccc(-c3ccccc3)cc2)nn1 (stereo not shown) [KT109] | maintaining comparable potencies against DAGLB | improved selectivity against FAAH, MGLL, and ABHD11 | within the first hour | 0.5 | ~90 | 2 | remained undetectable | significant decrease in PGE2 | confirmed inhibition of DAGLB | carboxylesterases (Ces3 and Ces2g) | – | – |
| COc1ccc(-c2ccc(-c3cn(C(=O)N4CCCCC4c4ccccc4)nn3)cc2)cc1 (stereo not shown) [KT195] | negligible activity against DAGLB at micromolar concentrations | completely inactivated ABHD6 | – | > 10 | – | – | remained undetectable | not observed | no activity against DAGLB | also inhibited | no evidence of DAGLB inhibition during the entire time-course of treatment | no observable effects |
